Measured values published in PMC5933457, “Probing biological activity through structural modelling of ligand-receptor interactions of 2,4-disubstituted thiazole retinoids” (Bioorganic & Medicinal Chemistry, 2018).
Where two headings read alike, the source gives them in different places.

Assays:
[1] = tested on: TERA2.cl.SP12 embryonal carcinoma stem cells; assay: Flow cytometry of cell-surface differentiation markers SSEA-3, TRA-1–60, A2B5; assay type: cell-based, human; conditions: 10 μM retinoid, 7 days, compared to ATRA and control cultures, Fig. 7A
From the text: First, we examined neuronal differentiation in pluripotent TERA2.cl.SP12 human embryonal carcinoma stem cells in response to retinoid treatment. TERA2.cl.SP12 cells have been used in previous studies, [29] to test the ability of synthetic retinoids to induce differentiation along a neuronal or an alternative epithelial pathway at long in vitro timescales of up to three weeks. […] Since the parent carboxylic acid (GZ24) had little activity, the response to GZ22 was a real effect of the ester rather than a result of hydrolysis of the parent ester to the carboxylic acid.
The expression of specific cell surface protein markers (SSEA-3, TRA-1–60, A2B5) on TERA2.cl.SP12 was analyzed using flow cytometry as described previously.[53] Briefly, TERA2.cl.SP12 cells, 2 × 10^5 per 25 cm^2 flask, were seeded 12–24 h before treatment with 10 μM retinoid for 7 days. The primary antibodies used were SSEA-3 (diluted 1:10, University of Iowa Hybridoma Bank), TRA-1–60 (diluted 1:50, Abcam) and neural cell marker A2B5 (diluted 1:40, R&D Systems). Labeled cells were analyzed in a Guave EasyCyte Plus System (Millipore) flow cytometer and thresholds determining the numbers of positively expressing cells were set against the negative control antibody, P3X.

[2] = biological target: T1, RARα ligand-binding domain (GST-RAR-α-LBD) (Homo sapiens, UniProt P10276); assay: LanthaScreen TR-FRET RARα co-activator (receptor binding) assay; assay type: biochemical; conditions: for binding-curve upper asymptote (coactivator recruitment), RARα: in words, Fig. 6A; for EC50: read-out: EC50 (95% confidence range) RARα
T1 construct: purchased Invitrogen
T1 sequence (P10276 183-417 limits assumed): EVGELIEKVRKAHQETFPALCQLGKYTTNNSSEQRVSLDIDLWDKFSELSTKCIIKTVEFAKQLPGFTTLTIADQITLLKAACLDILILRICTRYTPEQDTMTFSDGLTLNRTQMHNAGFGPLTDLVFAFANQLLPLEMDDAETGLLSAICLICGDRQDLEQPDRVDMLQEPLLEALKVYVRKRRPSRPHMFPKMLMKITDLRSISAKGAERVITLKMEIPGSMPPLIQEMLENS
Method: (§1) These predictions were tested through a receptor-binding assay for each RAR isotype (Fig. 6), where the assay signal is dependent on two parameters: the binding affinity of ligand to the RAR LBD, and the affinity of the coactivator for the ligand-LBD complex. For this assay, binding curves and variation in level of the upper asymptote can reflect differences in co-activator affinity for the ligand-LBD complex; variation in affinity of ligand for LBD shifts the midpoint (EC50) of the binding curve, whereas changes in the level of the upper asymptote may result from changes in coactivator affinity for the ligand-LBD complex alone, or in combination with changes in affinity for ligand with LBD.[23]
(§2) The binding interaction of each retinoid with RARα, β and γ were determined in vitro by time-resolved fluorescence resonance energy transfer (TR-FRET) using the LanthaScreen TR-FRET RARα, RARβ, and RARγ co-activator assays according to the manufacturer’s (Invitrogen™) instructions.[23] This uses a terbium-labeled anti-GST antibody, a fluorescein-labeled co activator peptide, and RARα/β/γ ligand-binding domains (LBD) that are tagged with glutathione-S-transferase (GST) in a homogenous assay format. All experiments were performed in black, 384-well low-volume plates in the dark at RT with a 4 h incubation time. The final assay volume was 20 μL and all dilutions were carried out using TR-FRET assay buffer, with a final DMSO concentration of 1%. A mixture of either 3.5 nM GST-RAR-α-LBD or 2.5 nM GST-RAR-β-LBD or 3 nM GST-RAR-γ-LBD with 62.5 nM Tb-anti GST antibody and 30 μM fluorescein-labeled peptide and retinoid or DMSO control was added to each of the wells. Each ligand assay was performed in duplicate and measured using a PHERAstar FS Microplate Reader (BMG Labtech, Ortenberg, Germany) with instrument settings as described in the manufacturer’s instructions for LanthaScreen assays. The TR-FRET signal was expressed as the ratio of the signals at 520 nm and 490 nm. The data were fitted to a three-parameter ligand-binding curve using SigmaPlot (version 12.5, Systat Software Inc., San Jose CA) and normalized to the lower asymptote of each binding curve. […] Since the assay involves interactions between ligand and LBD, and ligand-dependent interactions between the LBD and fluorescein-labeled co activator, the binding assay data were interpreted by simulating these coupled chemical reactions using the biochemical simulator COPASI version 4.3.[23], [54]
(§3) The readout of the Lanthascreen TR-FRET binding assay is based on a Forster resonance energy transfer (FRET) signal generated from the interaction between a terbium-labelled anti-glutathione-S-transferase (GST) antibody and a fluorescein-labelled coactivator peptide. The RAR ligand-binding domain (LBD) is a GST fusion protein and interaction between the LBD and the fluorescein-labelled coactivator peptide is driven by the binding of ligand to the LBD, and detected by the FRET signal from the terbium/fluorescein interaction when the terbium-labelled anti-GST binds the LBD fusion protein. The output of the assay thus relies on two binding interactions: ligand with LBD, and ligand-bound LBD with the coactivator peptide. As both interactions may be affected by the fit of ligand to the binding pocket of the LBD, we used the biochemical pathway simulator COPASI^1 to build a simple model of how the FRET signal output in the assay will vary according to differential changes in the kinetics of the two binding interactions. Reactions were modelled deterministically using mass-action kinetics described by ordinary differential equations (ODE) within COPASI.^1 This model enables us to assess the effect of different rate constants and varying ligand concentration on the formation of the final ternary complex that is the read-out from the Lanthascreen TR-FRET assay.

[3] = biological target: T2, RARβ ligand-binding domain (GST-RAR-β-LBD) (Homo sapiens, UniProt P10826); assay: LanthaScreen TR-FRET RARβ co-activator (receptor binding) assay; assay type: biochemical; conditions: for EC50: estimated EC50, TR-FRET co-activator assay, 4 h incubation, read-out: EC50 (95% confidence range) RARβ; for binding-curve upper asymptote (coactivator recruitment), RARβ: Fig. 6B
T2 construct: purchased Invitrogen
T2 sequence (P10826 183-417 limits assumed): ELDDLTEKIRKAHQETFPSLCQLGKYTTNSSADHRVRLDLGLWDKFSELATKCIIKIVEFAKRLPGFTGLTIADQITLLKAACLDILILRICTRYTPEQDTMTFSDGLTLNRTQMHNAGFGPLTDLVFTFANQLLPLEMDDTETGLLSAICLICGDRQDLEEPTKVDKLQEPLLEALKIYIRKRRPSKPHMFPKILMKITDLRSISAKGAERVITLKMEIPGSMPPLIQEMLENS
Method: as §1, §2, §3

[4] = biological target: T3, RARγ ligand-binding domain (GST-RAR-γ-LBD) (Homo sapiens, UniProt P13631); assay: LanthaScreen TR-FRET RARγ co-activator (receptor binding) assay; assay type: biochemical; conditions: for EC50: estimated EC50, TR-FRET co-activator assay, 4 h incubation, read-out: EC50 (95% confidence range) RARγ; for binding-curve upper asymptote (coactivator recruitment), RARγ: in words, Fig. 6C
T3 construct: purchased Invitrogen
T3 sequence (P13631 185-419 limits assumed): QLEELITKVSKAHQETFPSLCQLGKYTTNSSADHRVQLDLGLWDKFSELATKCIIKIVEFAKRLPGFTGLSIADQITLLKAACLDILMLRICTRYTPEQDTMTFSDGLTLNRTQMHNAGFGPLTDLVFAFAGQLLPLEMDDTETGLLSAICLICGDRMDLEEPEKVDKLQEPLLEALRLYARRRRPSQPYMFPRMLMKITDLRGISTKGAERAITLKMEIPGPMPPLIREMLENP
Method: as §1, §2, §3

TERA2.cl.SP12 cells = assay: Immunocytochemistry for A2B5, TUJ-1 and cytokeratin 8; assay type: cell-based, human
Method: Third, we carried out assessment of protein expression using immunofluorescent techniques on cultures of TERA2.cl.SP12 cells treated with retinoids.
TERA2.cl.SP12 cells were seeded at 5000 cells per well on poly-D-lysine (25 μg/ml) coated cover slips in 6-well plates. Cells were treated with each retinoid at a concentration of 10 μM for 7, 14 and 21 days (the media was changed every 3–4 days). Cells were also treated with 1% DMSO for the same time periods as a […] control. At the end of the treatment period, cells were fixed (4% para-formaldehyde in PBS for 30 min at room temperature (RT) and rinsed with PBS. One set of experiments was used for the cell surface marker A2B5 (diluted 1:100, R&D systems), and the other set was prepared for intracellular staining using 1% Triton-X-100 (Sigma Aldrich) in PBS as a permeabilizing agent for 10 min at RT. Non-specific labeling was blocked by incubation with a solution of 1% goat serum (Sigma Aldrich) containing 0.2% Tween-20 (Sigma Aldrich) in PBS for one hour at RT. The primary antibodies β-III tubulin antibody (TUJ-1) (1:200, Affymetrix eBioscience) and CK-8 antibody (1:500, Affymetrix eBioscience) were diluted in blocking solution and incubated with the cells for 1 h at RT. After washing three times for 15 min with PBS, cells were incubated for 1 h in the dark with anti-mouse FITC-conjugated secondary antibody IgM (1:128, Sigma Aldrich) for A2B5 staining, and anti-mouse Alexafluor 488 IgG (1:600, Invitrogen) for TUJ-1 and CK-8 staining. Hoechst 33,342 nuclear staining dye (1:1000, Molecular Probes) was dissolved in blocking solution after the secondary antibody staining step for nuclear staining.
Immunocytofluorescent images of fixed cells were visualized using a Leica SP5 confocal microscope. Scale bars are shown at 25 μm.

[5] = tested on: SH-SY5Y human neuroblastoma cells; assay: Retinoid-induced gene expression (RARα, RARβ, RARγ, CYP26A1) by real-time PCR; assay type: cell-based
Method: As an additional assay of biological activity, short-term changes in expression of four genes in SH-SY5Y cells was employed; a neuroblastoma-derived lineage that undergoes neuronal differentiation in response to retinoid treatment. The four genes assayed, RARα, RARβ, RARγ and CYP26A, have RAREs associated with their promoters and may be directly regulated by retinoids.[51], [52]
(§4) Real time PCR was carried out immediately after treatment on both cell line lysates with 0.25% trypsin–EDTA. TERA-2.cl.SP12 cells were seeded at a density of 1 × 10^6 cells per 25 cm^2 flask, 12–24 h before treatment. […] SH-SY5Y cells were seeded at a density of 1 × 10^6 cells per 25 cm^2 flask, 12–24 h before treatment. […] Commercial RNA extraction kits (Qiagen) and reverse transcription (Applied Biosystems) kits were purchased and procedures used according to the manufacturer instructions. Real time PCR was performed using the TaqMan® Universal PCR Master Mix (Life technologies) and TaqMan® gene expression system (Applied Biosystems) based on probe sets to the specific genes to be analysed. Genecodes used are as follows: RARβ (Hs00233407_m1), CYP26-A1 (Hs00175627_m1), RARα (Hs00940448_g1), RARγ (Hs01559234_m1), PAX-6 (Hs01088112_m1), NeuroD1 (Hs01922995_s1). GADPH (Hs02758991_g1) and ACTB (Hs99999903_m1) were used as internal control genes for TERA-2.cl.SP12 and SH-SY5Y, respectively.

TERA2.cl.SP12 stem cells = assay: Real-time PCR for neuronal markers NeuroD1 and PAX6; assay type: cell-based, human; conditions: 10 μM, Fig. 7B
Method: Second, NeuroD1 and PAX6 are retinoid-induced transcription factors involved in regulating neuronal differentiation,[49], [50] and are expressed in neurons derived from TERA2.cl.SP12 stem cells.
as §4

Row | SMILES | proportion of cells expressing differentiation markers SSEA-3, TRA-1–60, A2B5 [1] | binding-curve upper asymptote (coactivator recruitment), RARα [2] | EC50 [2] [nM] | EC50 [3] [nM] | binding-curve upper asymptote (coactivator recruitment), RARβ ([3]; in words) | RAR-type selectivity from binding assay ([3]; in words, from EC50 values of Table 1) | EC50 [4] [nM] | binding-curve upper asymptote (coactivator recruitment), RARγ [4] | expression of epithelial phenotype marker cytokeratin 8 (TERA2.cl.SP12 cells; 10 μM, 1, 2 and 3 weeks, Fig. 7D) | expression of neuronal differentiation marker A2B5 (immunofluorescence) (TERA2.cl.SP12 cells; 10 μM, after 7 days, Fig. 7C) | neuronal differentiation by TUJ-1 staining (TERA2.cl.SP12 cells; 10 μM, up to 3 weeks, Fig. 7C) | induction of RARα and RARγ expression ([5]; 10 μM retinoid, over a 12 h period, Fig. 8A) | induction of RARβ expression, rank order ([5]; dose-response 1 nM to 1 μM, 8 h treatment, all doses, Fig. 8B) | induction of CYP26A1 expression, rank order ([5]; dose-response 1 nM to 1 μM, 8 h treatment, doses <1 μM, Fig. 8B) | NeuroD1 mRNA expression, rank order (TERA2.cl.SP12 stem cells; after 5 days) | NeuroD1 mRNA expression, rank order (TERA2.cl.SP12 stem cells; after 7 days) | induction of PAX6 expression, rank order (TERA2.cl.SP12 stem cells; up to 7 days) | EC50 ([2]; estimated EC50, TR-FRET co-activator assay, 4 h incubation) [nM]
1 | CCOC(=O)c1ccc(-c2nc(-c3ccc4c(c3)C(C)(C)CCC4(C)C)c(C)s2)cc1 [GZ23] | very little activity | lower asymptotes | 88.9 | 12.1 | high asymptotes | surprising selectivity for RARβ | 847 | intermediate |  |  |  |  |  |  |  |  |  | 
2 | CC1=C(/C=C/C(C)=C/C=C/C(C)=C/C(=O)O)C(C)(C)CCC1 [ATRA, all-trans-retinoic acid, reference compound] |  | high curve asymptotes |  |  |  |  |  |  | not detectable | induced | most effective | greatest activity | GZ25 ≫ ATRA > GZ18 | GZ25 > GZ18 > ATRA | GZ25 > GZ18 > ATRA | ATRA > GZ25 | GZ25 ≫ ATRA > GZ18 | 
3 | Cc1sc(-c2ccc(C(=O)O)cc2)nc1-c1ccccc1 [GZ24] | very little activity | lower asymptotes |  | 77.8 | very low asymptotes |  | 109 | intermediate |  |  |  |  |  |  |  |  |  | 77.5
